# According to patent publication US8937088B2, “Ureas for the treatment and prevention of cancer” (Astar Biotech LLC, priority 2011, dated 2015):
# Read-outs that look alike come from different tables or passages of the source.
# What was measured:
# [1] = test system: patient-derived primary squamous lung 14531 tumor; test: In vivo activity in SCID mouse model with lung cancer, 30-day treatment; conditions: patient-derived primary squamous lung 14531 tumor in mouse, compared to the control
# From the text: Biological Test 4. In Vivo Activity in […] SCID Mouse Model with Lung Cancer
# Biological Test 5. In Vivo Activity in Senograph SCID Mouse Model with Lung Cancer
# [2] = test system: HepG2 (human Hepatocellular carcinoma cell line); test: Cell death detection, trypan blue exclusion assay, HepG2; format: cell-based; conditions: HepG2, 5-day treatment
# Protocol: (§1) Biological Test 2. Cell Death Detection Using Trypan Blue Exclusion Assay.
# (§2) After drug treatment, cells were harvested by trypsinization with trypsin/EDTA for 10 min at 37° C. As some apoptotic cells detached from the culture substratum into the medium, these cells were also collected by centrifugation of the medium at 1,200 rpm for 5 min. The pooled cell pellets were resuspended and mixed with trypan blue dye. After Trypan blue stain was done, cells were counted by using a light microscope and a hemocytometer. Blue dye-incorporating cells were scored as being dead. Five hundred cells from randomly chosen fields were counted, and the number of dead cells was counted and expressed as a percentage of the total number of cells counted as shown in Tables 2 to 8 below.
# [3] = test system: HUH7 (human hepatoma cell line); test: Cell death detection, trypan blue exclusion assay, HUH7; format: cell-based; conditions: Huh-7, 168 h, HUH7, 7-day treatment, read-out: Cell Death (%) at Tested Concentration
# Protocol: as §1, §2
# [4] = test system: LNCaP (human prostate adenocarcinoma cell line); test: Cell death detection, trypan blue exclusion assay, LNCaP; format: cell-based; conditions: read-out: Cell Death (%) at Tested Concentration
# Protocol: as §1, §2
# [5] = test system: HT29 (human colon adenocarcinoma cell line); test: Cell death detection, trypan blue exclusion assay, HT29; format: cell-based; conditions: HT29, 5-day treatment
# Protocol: as §1, §2
# [6] = test system: Hep3B (human hepatoma cell line); test: Cell death detection, trypan blue exclusion assay, Hep3B; format: cell-based; conditions: 5-day treatment
# Protocol: as §1, §2
# [7] = test system: HUH7 (human hepatoma cell line); test: Cell death detection, trypan blue exclusion assay, HUH7, in combination with AZD-6244; format: cell-based; conditions: HUH7, 6-day treatment, compound 0.5 μM
# Protocol: as §1, §2
# BRAF = BRAF (Homo sapiens, UniProt P15056); test: In vitro kinase assay (Invitrogen SelectScreen Profiling Service), BRAF; format: biochemical
# Chain of BRAF (P15056 whole entry): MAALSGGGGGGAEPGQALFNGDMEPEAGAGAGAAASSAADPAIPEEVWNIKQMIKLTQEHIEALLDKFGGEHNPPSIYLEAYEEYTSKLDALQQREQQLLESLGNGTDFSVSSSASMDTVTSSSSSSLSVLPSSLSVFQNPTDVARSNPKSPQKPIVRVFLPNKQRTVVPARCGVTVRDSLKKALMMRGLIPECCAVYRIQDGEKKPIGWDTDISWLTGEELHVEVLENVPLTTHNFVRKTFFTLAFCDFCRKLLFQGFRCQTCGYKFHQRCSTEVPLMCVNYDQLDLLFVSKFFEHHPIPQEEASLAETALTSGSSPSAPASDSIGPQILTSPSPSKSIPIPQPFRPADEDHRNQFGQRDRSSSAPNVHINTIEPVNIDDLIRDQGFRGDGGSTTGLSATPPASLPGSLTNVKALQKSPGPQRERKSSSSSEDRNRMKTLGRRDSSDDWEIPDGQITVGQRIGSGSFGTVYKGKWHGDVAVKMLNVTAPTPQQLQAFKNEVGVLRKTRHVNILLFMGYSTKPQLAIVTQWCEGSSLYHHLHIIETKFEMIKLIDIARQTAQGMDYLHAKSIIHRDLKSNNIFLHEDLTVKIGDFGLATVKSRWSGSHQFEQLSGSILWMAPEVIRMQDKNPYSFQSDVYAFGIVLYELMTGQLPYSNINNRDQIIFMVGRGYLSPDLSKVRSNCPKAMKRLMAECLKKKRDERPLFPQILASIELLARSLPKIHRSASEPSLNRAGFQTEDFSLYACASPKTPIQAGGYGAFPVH
# Protocol: (§3) Biological Test 1. In Vitro Kinase Assay for BRAF, FLT3 and KDR(VEGFR2) The inhibitory activities of the compounds of the invention were measured by Invitrogen's SelectScreen® Profiling Service.
# KDR(VEGFR2) = KDR(VEGFR2) (Homo sapiens, UniProt P35968); test: In vitro kinase assay (Invitrogen SelectScreen Profiling Service), KDR; format: biochemical
# Chain of KDR(VEGFR2) (P35968 20-1356): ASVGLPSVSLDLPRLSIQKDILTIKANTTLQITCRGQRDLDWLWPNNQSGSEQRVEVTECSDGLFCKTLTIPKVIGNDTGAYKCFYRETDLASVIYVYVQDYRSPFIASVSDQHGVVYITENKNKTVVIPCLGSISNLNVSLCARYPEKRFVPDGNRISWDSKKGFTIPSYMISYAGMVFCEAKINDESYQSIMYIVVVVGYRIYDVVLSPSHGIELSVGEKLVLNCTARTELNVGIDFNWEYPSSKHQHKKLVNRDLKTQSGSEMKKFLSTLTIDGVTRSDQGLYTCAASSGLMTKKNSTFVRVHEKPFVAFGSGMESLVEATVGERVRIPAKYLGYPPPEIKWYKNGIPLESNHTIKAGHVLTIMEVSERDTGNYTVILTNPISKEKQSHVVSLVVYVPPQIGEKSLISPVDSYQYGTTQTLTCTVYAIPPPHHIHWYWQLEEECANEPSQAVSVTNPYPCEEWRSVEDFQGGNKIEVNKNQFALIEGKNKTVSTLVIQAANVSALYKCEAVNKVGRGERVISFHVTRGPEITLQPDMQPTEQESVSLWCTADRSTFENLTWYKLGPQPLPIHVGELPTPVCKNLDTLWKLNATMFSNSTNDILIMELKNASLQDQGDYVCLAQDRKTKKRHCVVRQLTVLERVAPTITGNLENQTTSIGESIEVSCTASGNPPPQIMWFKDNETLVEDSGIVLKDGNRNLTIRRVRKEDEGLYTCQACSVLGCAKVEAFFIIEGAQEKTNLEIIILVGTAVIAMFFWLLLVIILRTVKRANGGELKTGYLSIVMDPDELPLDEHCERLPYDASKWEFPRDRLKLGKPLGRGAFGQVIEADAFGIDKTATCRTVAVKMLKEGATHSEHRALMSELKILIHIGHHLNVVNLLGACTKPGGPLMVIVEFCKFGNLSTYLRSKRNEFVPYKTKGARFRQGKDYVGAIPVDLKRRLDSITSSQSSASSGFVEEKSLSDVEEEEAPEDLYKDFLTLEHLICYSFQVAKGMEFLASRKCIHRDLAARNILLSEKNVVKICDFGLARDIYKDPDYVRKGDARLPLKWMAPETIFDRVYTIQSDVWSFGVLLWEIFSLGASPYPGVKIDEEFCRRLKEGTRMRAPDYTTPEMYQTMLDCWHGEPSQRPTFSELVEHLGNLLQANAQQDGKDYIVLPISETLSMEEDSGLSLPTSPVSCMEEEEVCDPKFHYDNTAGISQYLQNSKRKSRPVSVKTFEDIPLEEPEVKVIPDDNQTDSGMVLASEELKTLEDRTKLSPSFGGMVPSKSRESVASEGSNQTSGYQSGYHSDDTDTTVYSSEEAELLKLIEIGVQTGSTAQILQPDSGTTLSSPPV
# Protocol: as §3
# FLT3 = molecular target: T1, FLT3 (Homo sapiens, UniProt P36888); test: In vitro kinase assay (Invitrogen SelectScreen Profiling Service), FLT3; format: biochemical; conditions: FLT3, 0.1 μM
# T1 sequence (P36888 27-993): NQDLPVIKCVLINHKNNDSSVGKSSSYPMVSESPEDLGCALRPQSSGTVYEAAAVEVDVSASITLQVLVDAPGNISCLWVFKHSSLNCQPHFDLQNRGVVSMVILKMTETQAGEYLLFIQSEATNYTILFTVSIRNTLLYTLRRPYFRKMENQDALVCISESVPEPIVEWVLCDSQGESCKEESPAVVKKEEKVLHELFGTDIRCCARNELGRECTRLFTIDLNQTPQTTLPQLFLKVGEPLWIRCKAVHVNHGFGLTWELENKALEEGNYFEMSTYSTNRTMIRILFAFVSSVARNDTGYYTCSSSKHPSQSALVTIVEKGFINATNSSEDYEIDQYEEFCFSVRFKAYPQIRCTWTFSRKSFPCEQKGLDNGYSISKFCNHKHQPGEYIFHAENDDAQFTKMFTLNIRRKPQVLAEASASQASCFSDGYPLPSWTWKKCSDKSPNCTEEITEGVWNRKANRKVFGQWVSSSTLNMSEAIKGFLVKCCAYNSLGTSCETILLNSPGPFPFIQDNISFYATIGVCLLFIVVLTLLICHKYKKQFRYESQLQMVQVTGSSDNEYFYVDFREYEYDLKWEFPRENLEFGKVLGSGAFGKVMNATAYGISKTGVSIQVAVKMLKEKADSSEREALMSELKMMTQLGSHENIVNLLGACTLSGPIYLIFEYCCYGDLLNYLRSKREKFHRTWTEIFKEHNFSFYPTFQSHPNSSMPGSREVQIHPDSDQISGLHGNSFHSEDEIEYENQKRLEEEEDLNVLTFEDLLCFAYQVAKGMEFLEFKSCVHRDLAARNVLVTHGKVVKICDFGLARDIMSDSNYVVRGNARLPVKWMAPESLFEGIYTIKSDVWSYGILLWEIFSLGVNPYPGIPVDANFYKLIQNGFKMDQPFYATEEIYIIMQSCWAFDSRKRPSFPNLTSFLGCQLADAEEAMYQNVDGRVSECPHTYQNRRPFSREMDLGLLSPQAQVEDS
# Protocol: as §3
Compound,effect in reducing the tumor volume [1],Cell Death (%) at Tested Concentration ([2]; 0.25 uM),Cell Death (%) at Tested Concentration ([2]; 3.0 uM),Cell Death (%) at Tested Concentration ([2]; 5.0 uM),cytotoxicity at 1 µM [3],cytotoxicity at 2.5 µM [3],cytotoxicity at 5 µM [3],cytotoxicity at 7.5 µM [3],cytotoxicity at 10 µM [3],"cytotoxicity at 1 µM ([4]; 72 h, 3-day treatment)","cytotoxicity at 2.5 µM ([4]; 72 h, 3-day treatment)","cytotoxicity at 5 µM ([4]; 72 h, 3-day treatment)","cytotoxicity at 7.5 µM ([4]; 72 h, 3-day treatment)","cytotoxicity at 10 µM ([4]; 72 h, 3-day treatment)","cytotoxicity at 1 µM ([4]; 168 h, 7-day treatment)","cytotoxicity at 2.5 µM ([4]; 168 h, 7-day treatment)","cytotoxicity at 5 µM ([4]; 168 h, 7-day treatment)","cytotoxicity at 7.5 µM ([4]; 168 h, 7-day treatment)","cytotoxicity at 10 µM ([4]; 168 h, 7-day treatment)",Cell Death (%) at Tested Concentration ([5]; 2.5 uM),further results
"CNC(=O)c1cc(Oc2ccc(NC(=O)Nc3ccc(S(F)(F)(F)(F)F)cc3)c(F)c2)ccn1 [Example 10, 4-[3-fluoro-4-({[4-(pentafluoro-λ^6-sulfanyl)phenyl]carbamoyl}amino)phenoxy]-N-methylpyridine-2-carboxamide]",significant effect in reducing the tumor volume,2.7%,4.2%,4.8%,1.9%,2.2%,17.2%,87.6%,93.7%,1.8%,1.9%,9.4%,11.3%,68.3%,2.2%,2.8%,99%,99%,99%,18.3%,Cell Death (%) at Tested Concentration ([5]; 5.0 uM): 54.6%; Cell Death (%) at Tested Concentration ([5]; 10 uM): 56.7%; Cell Death (%) at Tested Concentration ([6]; 0.25 uM): 3.4%; Cell Death (%) at Tested Concentration ([6]; 3.0 uM): 7.6%; Cell Death (%) at Tested Concentration ([6]; 5.0 uM): 19.5%; Cell Death (%) in combination with AZD-6244 ([7]; AZD-6244 0 μM): 1.7%; Cell Death (%) in combination with AZD-6244 ([7]; AZD-6244 0.5 μM): 94.6%
"CNC(=O)c1cc(Oc2ccc(NC(=O)Nc3ccc(Cl)c(S(F)(F)(F)(F)F)c3)c(F)c2)ccn1 [Example 4, 4-[4-({[4-chloro-3-(pentafluoro-λ^6-sulfanyl)phenyl]carbamoyl}amino)-3-fluorophenoxy]-N-methylpyridine-2-carboxamide]",significant effect in reducing the tumor volume,1.9%,4.5%,27.6%,2.8%,3.1%,59.8%,91.4%,93.4%,1.8%,1.4%,2.8%,46.8%,94.8%,1.4%,2.7%,69.4%,99%,99%,11.6%,inhibition at 0.1 µM (BRAF): 8%; inhibition at 0.1 µM (KDR(VEGFR2)): 36%; Cell Death (%) at Tested Concentration ([5]; 5.0 uM): 13.8%; Cell Death (%) at Tested Concentration ([5]; 10 uM): 44.6%; Cell Death (%) at Tested Concentration ([6]; 0.25 uM): 4.6%; Cell Death (%) at Tested Concentration ([6]; 3.0 uM): 67.2%; Cell Death (%) at Tested Concentration ([6]; 5.0 uM): 96.7%; inhibition at 0.1 µM (FLT3): 51%; Cell Death (%) in combination with AZD-6244 ([7]; AZD-6244 0 μM): 2.6%; Cell Death (%) in combination with AZD-6244 ([7]; AZD-6244 0.5 μM): 99%
